From paper PMC13252604, “First Generation Proteolysis Targeting Chimeras (PROTACs) for the Treatment of Progeria” (Advanced Science, 2026) come the findings set out here.

This experiment concerns the target T1, progerin (Mus musculus, UniProt P48678, DEL608-657).
T1 construct: endogenous in cells; host or cells: immortalized (SV40-LT) fibroblasts from Lmna G609G/G609G mice
T1 sequence (P48678 with tags, fused parts or gaps DEL608-657 limits assumed): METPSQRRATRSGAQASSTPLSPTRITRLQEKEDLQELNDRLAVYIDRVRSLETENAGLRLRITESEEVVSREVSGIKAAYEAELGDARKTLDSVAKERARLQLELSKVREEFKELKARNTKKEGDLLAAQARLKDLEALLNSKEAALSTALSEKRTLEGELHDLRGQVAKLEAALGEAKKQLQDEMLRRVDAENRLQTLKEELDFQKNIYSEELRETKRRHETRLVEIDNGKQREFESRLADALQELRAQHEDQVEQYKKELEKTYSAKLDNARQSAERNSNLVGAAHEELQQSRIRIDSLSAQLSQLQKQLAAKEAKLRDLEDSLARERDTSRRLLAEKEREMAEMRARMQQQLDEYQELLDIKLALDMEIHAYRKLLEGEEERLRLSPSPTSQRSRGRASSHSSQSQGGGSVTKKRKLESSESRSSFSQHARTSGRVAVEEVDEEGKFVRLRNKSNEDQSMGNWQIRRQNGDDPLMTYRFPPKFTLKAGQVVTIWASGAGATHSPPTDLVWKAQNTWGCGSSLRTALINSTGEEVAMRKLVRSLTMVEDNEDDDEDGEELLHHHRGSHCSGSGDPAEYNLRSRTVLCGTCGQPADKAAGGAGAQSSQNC
The experiment in a line: Progerin degradation, immunoblot in Lmna^G609G/G609G fibroblasts. In kind it is cell-based. As to conditions: 8 h; for progerin levels (immunoblot quantification): Lmna^G609G/G609G fibroblasts, 5 µM, vs vehicle. The method, then: The ability of compounds 2‐6 to degrade progerin was evaluated in Lmna^G609G/G609G fibroblasts, derived from the progeria mouse model that most closely replicates the human disease phenotype. Lamin A/C antibody was used for immunodetection due to its prevalent use in this context, enabling simultaneous visualization of both lamins and progerin [15].
FIGURE 2 (A) Representative cropped immunoblots and quantification of progerin from Lmna^G609G/G609G fibroblasts. Cells were incubated with vehicle or indicated compound at 5 µM for 8 h. MW, molecular weight (in kDa) markers. (B, C) Concentration and time‐dependency of the reduction of progerin levels induced by compounds 2 and 9. Graphs show quantification of progerin in Lmna^G609G/G609G fibroblasts (immunoblots are shown in Supporting Figure S1). Cells were incubated with vehicle or the indicated compound concentration for 8 h. For time‐course experiments, cells were incubated with vehicle or indicated compound at 5 µM. Bar graphs show mean±sem of 3 independent experiments performed in duplicate. Data were analysed using one‐way ANOVA followed by Dunnett's post–hoc test comparing all groups to the vehicle; ^*, p < 0.05. […]
4. Cell lines and culture.
Progeroid mouse fibroblasts, kindly donated by Prof. Carlos López Otín (Oviedo University, Spain), were isolated from LmnaG609G/G609G mice[19] and wild-type (WT) littermates and immortalized by retroviral transduction with SV40 large T antigen (SV40-LT). Since LmnaG609G/G609G mouse represents the most suitable and widely accepted model of HGPS, as it most faithfully recapitulates the molecular and phenotypic features of the human disease, its use in this study is fully justified. Moreover, although this cell […]
cells have been extensively validated by additional independent studies.[15, 65, 66] […]
experiments, nor does it affect the conclusions presented in our study.
Mouse fibroblasts were grown in Dulbecco’s modified eagle medium (DMEM, Gibco) supplemented with 10% heat inactivated fetal bovine serum (FBS, Gibco), 50 U/mL penicillin, and 50 μg/mL streptomycin (Invitrogen). Human progeroid HGADFN167 LmnaG608G/G608G (G608G) or or healthy HGADFN168 Lmna+/+ (WT) fibroblasts, were obtained from The Progeria Research Foundation (RRIDs CVCL_1Y92 and CVCL_1Y93, respectively) and cultured in DMEM with 20% heat inactivated FBS, 50 U/mL penicillin and 50 μg/mL streptomycin. All cells were incubated in a humidified atmosphere at 37 °C in the presence of 5% CO2 and were confirmed to be free of mycoplasma contamination. […]
Measurements were performed in triplicate, and each experiment was repeated at least three times. The viability values were calculated from the percentage of viable cells with respect to 100% viability of the vehicle-treated cells.
6. Immunoblot and immunocytofluorescence analysis.
Mouse or human progeroid cells were seeded at density of […] or 5 x 10^4 cells respectively on 12-well plates and incubated for 24 h in DMEM medium. For proteosome-dependency assays, cells were pre-treated either with the proteasome inhibitor (S)-MG132 (20 µM) or with the NEDD8-activating enzyme inhibitor MLN4924 (5 µM) for 2 h prior to […]
compound exposure. Then, cells were incubated with compound of interest or DMSO for the appropriate time and lysed with cold laemmli buffer (50 mM Tris-HCl pH 7.4, 150 mM NaCl, 1% Igepal) with a mixture of protease and phosphatase inhibitors (1 mM PMSF, 10 mM NaF, 0.3 mg/mL CalyculinA, 1 mM sodium orthovanadate, 10 mM β-glycerol-phosphate; all from Sigma-Aldrich and complete protease inhibitor cocktail, from Roche). Proteins were denatured at 95 ᵒC for 5 min and the lysates were immediately used or stored at -20 ᵒC until use. Samples were analysed by electrophoresis in polyacrylamide gels (All Kd SDS-PAGE, BioRad) and the proteins transferred to nitrocellulose membranes (GE Healthcare, Amersham). After 1 h of incubation in blocking buffer [20 mM Tris pH 7.6, 150 mM NaCl and 0.1% Tween-20 (TBS-T) with […]
(A western blot detects proteins with antibodies after separation by electrophoresis.)

On to `CC1(C)Oc2cc3oc(=O)ccc3cc2C[C@@H]1OC(=O)CCCCCNc1cccc2c1C(=O)N(C1CCC(=O)NC1=O)C2=O` (stereo partly shown) [compound 2], for which the “progerin levels (immunoblot quantification)” value was “most effective in reducing progerin levels”. Also, the “progerin-reducing activity in the presence of proteasome inhibitor MG132” value (compound 5 µM, pre-treated with (S)-MG132 20 µM 2 h) is on record as “abolished”. For the same molecule, the “progerin-reducing activity in the presence of neddylation inhibitor MLN4924” value (compound 5 µM, pre-treated with MLN4924 5 µM 2 h) is given as “abolished”.

Regarding `CC1(C)Oc2cc3oc(=O)ccc3cc2C[C@@H]1OC(=O)CCCCC(=O)Oc1ccc2c(c1)CCCN2C(=O)CCl` [compound 12], the “progerin levels (immunoblot quantification)” value is on record as “failed to reduce progerin levels”.
